Patent US20260240820A1, “METHOD FOR CONTROLLING MEMBRANE POTENTIAL-DEPENDENT ION CHANNEL THROUGH TYPE I TASTE RECEPTORS (T1RS)” (ION CHAT RESEARCH CORPORATE, priority 2022, published 2026)
Entries after “also recorded” stand apart in the source; their conditions may differ. Read-outs that look alike come from different tables or passages of the source.

Legend:
VGSC = experiment: Patch-clamp recording of VGSC current, cell type not specified or several cell types (summary statements); format: cell-based, human
[1] = tested on: VGSC of SH-SY5Y cells (Nav1.7, Nav1.2, Nav1.3); experiment: Patch-clamp recording of VGSC current in differentiated SH-SY5Y cells; format: cell-based, human; details: for IC50: read-out: IC50 (VGSC inhibition)
Source text: Furthermore, the inventors focused on the relationship between taste receptors, particularly the sweet or umami receptors containing the T1R3 subunit, which are widely expressed in the brain and nervous system, including the hippocampus and cortex. They used human neuroblastoma cells (SH-SY5Y) that functionally express Nav1.2, Nav1.3, and Nav1.7 (as reported in non-patent literature 8), as well as HEK cells stably expressing Nav1.5 (with endogenous expression of T1R1, T1R2, and T1R3). They observed the effects of taste stimuli on sodium channel activation. By reducing the expression of T1R1 and T1R3 genes using silencing vectors, they confirmed that the effects on sodium channel currents induced by taste stimuli act through taste receptor GPCRs.
The SH-SY5Y cell culture medium was prepared by mixing DMEM (Sigma-Aldrich) and F-12 (Sigma-Aldrich) in equal proportions. To induce neuronal-like differentiation, the medium contained 1% FBS (BioWest), 5% 40 mM L-Glutamine (Fuji Film), and 1% MEM non-essential amino acids (Wako Pure Chemical Industries). During differentiation, SH-SY5Y cells were cultured for at least 5 days with the addition of 10 μM/ml retinoic acid (Fuji Film). In this document, “SH-SY5Y cells” refer to the SH-SY5Y cell line differentiated into neuronal-like cells.

Kv1.2 = experiment: Patch-clamp recording of Kv1.2 potassium current in HEK cells expressing Kv1.2; format: cell-based, human
Description: The effects of Aβ peptides or umami substances on sustained potassium currents (VGKC) in cardiac myocytes can be studied using HEK cells expressing VGKC (such as Kv1.2, Kv3.2, Kv3.3) as well as SH-SY5Y cells expressing endogenous T1R GPCRs. For instance, as shown in the implementation example in (FIG. 36B), Aβ peptides were applied to VGKC-expressing human cultured cells, and VGKC currents were recorded using ramp-like or rectangular voltage waveforms via the patch-clamp technique. This allowed measurement of the changes (inhibition) in VGKC currents caused by Aβ peptides. Similar inhibition studies on VGKC can be conducted using umami substance L-glutamate sodium (MSG) (FIG. 36A).
As shown in (FIG. 37), Aβ1-42 peptide, unlike Aβ25-35 targeting T1R3, interacts with T1R1 and inhibits VGSC currents (FIGS. 37D, E).

Nav1.5 = experiment: Patch-clamp (voltage clamp) recording of VGSC current in HEK cells stably expressing Nav1.5
[2] = tested on: Nav1.5 in T1R3-silenced HEK cells; experiment: VGSC current in HEK Nav1.5 cells with silenced T1R3; format: cell-based, human
Source text: The miRNAs Oligo (Thermofisher) used for silencing were annealed to form double-stranded DNA, which was then linked to the miR RNAi Expression Vector using T4 DNA ligase to create the knockdown vector. Specifically, the procedure followed the miR RNAi Expression Vector Kit manual (BLOCK-i™ Pol II miR RNAi Expression Vector Kit with EmGFP (Catalog number: K493600)).
Since Aβ25-35 peptide produced similar effects (enhancing VGSC activity, lowering the excitability threshold) as glutamine, it was considered that Aβ25-35 peptide might also act on T1R2/T1R3 receptors like glutamine. Therefore, in this implementation example, we used HEK-Nav1.5 cells with silenced T1R3 and compared the effect of Aβ25-35 peptide on VGSC with that in control HEK-Nav1.5 cells.
To strengthen these findings, we conducted similar experiments using HEK Nav1.5 cells in which T1R3 expression was silenced (FIG. 22). We measured VGSC currents in T1R3-silenced HEK Nav1.5 cells, applying stimuli every 8 seconds.

[3] = tested on: voltage-dependent potassium channel current of SH-SY5Y cells; experiment: Voltage clamp recording of outward potassium current in SH-SY5Y cells; format: cell-based, human; details: 2 mM
Source text: The inward current represents the transient peak observed immediately after stimulation, while the outward current measures the average value during the last 50 ms of rectangular pulse stimulation.

OC[C@H]1OC(O)[C@H](O)[C@@H](O)[C@@H]1O (stereo partly drawn) [Glucose]
Effects on VGSCs (VGSC; <10 mM): Enhancement of VGSC | Effects on VGSCs (VGSC; >20 mM): Inhibition of VGSCs

N[C@@H](CC(=O)O)C(=O)O [aspartic acid]
Effect on VGSC inactivation (VGSC): delay VGSC inactivation

COc1cc2c(c(OC)c1OC)-c1ccc(OC)c(=O)cc1[C@@H](NC(C)=O)CC2 [Colchicine]
Effects on VGSCs (VGSC): Enhances VGSC | VGSC current amplitude (VGSC; 2.25 μM, at −40 mV): nearly doubled

NC(=O)CC[C@H](N)C(=O)O [L-Gln, L-glutamine]
Effects on VGSCs (VGSC): Enhancement of VGSC; also recorded: Delay in VGSC inactivation | Increase in VGSC current (VGSC; 0.5-1 mM, SH-SY5Y (n=8) and HEK-Nav1.5 (n=4)): 10-20% | Effect on VGSC current (VGSC; concentrations higher than 1 mM): 500 uM and 1 mM but not at higher | Effect on VGSC current (VGSC; concentrations higher than 1 mM, listed as glutamine): No further enhancement | Effect on VGSC inward current ([1]; 500 μM): enhancement of transient downward VGSC current; also recorded: amplification of VGSC inward current | Effect on voltage gated K+ channel (Kv1.2) current (Kv1.2): Inhibition of Voltage gated

NCCCC[C@H](N)C(=O)O [lysine]
Effect on VGSC inactivation (VGSC): delay VGSC inactivation

C/C1=C/C(=O)O[C@@H]2C[C@@H](CC[C@H](C)/C=C\C=C\CC1)O[C@@](O)([C@@H]1CSC(=O)N1)C2 [Latrunculin A]
Effects on VGSCs (VGSC): reduces VGSC | Shift of steady-state inactivation (S-S) curve of VGSC (VGSC): shifting the S-S curve toward hyperpolarization | Effect on VGSC current (VGSC; 12.6 μM): shifted the VGSC current toward hyperpolarization and inhibited it | Effect on VGSC current (VGSC; 12.6 μM, listed as LatA): significantly inhibits VGSC current

CC(C)(Cc1ccc2ccccc2c1)NC[C@@H](O)COc1cccc(Cl)c1C#N [NPS-2143]
Effects on VGSCs (VGSC): inhibited human VGSC; also recorded: Inhibition of VGSCs | Required concentration for VGSC inhibition (VGSC; HEK Nav1.5 and SH-SY5Y): 5 µM | Effect on VGSC current (Nav1.5; 5 μM): Inhibitory effect; also recorded: slowly inhibited | Effect on leak (baseline) current (Nav1.5; when VGSC inhibition nearly complete): non-selective leak currents | Effect on VGSC in T1R3-silenced cells [2]: no VGSC inhibitory effect was observed

CC(=O)O[C@H]1C(=O)[C@@]2(C)[C@H]([C@H](OC(=O)c3ccccc3)[C@]3(O)C[C@H](OC(=O)[C@H](O)[C@@H](NC(=O)c4ccccc4)c4ccccc4)C(C)=C1C3(C)C)[C@]1(OC(C)=O)CO[C@@H]1C[C@@H]2O [Taxol]
Effects on VGSCs (VGSC): Enhances VGSC | Effect on VGSC current (Nav1.5; 0.4 μM to […]): VGSC enhancement was observed | Effect on VGSC current (Nav1.5; 0.4 μM to […], listed as Paclitaxel (Taxol)): enhances HEK Nav1.5 cell VGSC

NCCCC(=O)O [GABA, γ-aminobutyric acid]
Effect on VGSC current enhanced by Aβ42/40 (AD-D) (Nav1.5; applied after Aβ42/40 (AD-D)): no effects similar to β-alanine were observed

CC(Oc1ccc(Cl)cc1Cl)C(=O)O (stereo not drawn) [dichlorprop, 2-(2,4-dichlorophenoxy) propanoic acid]
Rank among sweet taste inhibitors in inhibiting Na+ channels (VGSC; dichlorprop>>clofibrate>lactisole): most effective inhibitor of sodium channels at the lowest concentration; also recorded: most potent | Effects on VGSCs (VGSC; listed as DichrolProp): Inhibition of VGSCs | IC50 ([1]; prepulse −80 mV): 17.3 µM | IC50 ([1]; prepulse/holding voltage −60 mV): 9 µM | Effect on VGSC current amplitude (Nav1.5): reduced the amplitude of VGSC current | Vh of steady-state inactivation curve (Nav1.5; 500 μM): shifted to a more negative potential | Slope of steady-state inactivation curve (Nav1.5; Control vs 300 and 500 μM, t-test): no significant difference | Effect on S-S curve of VGSC in the presence of Taxol (Nav1.5; in the presence of Taxol): shifted the S-S curve of VGSC in the hyperpolarizing direction

COc1ccc(OC(C)C(=O)O)cc1 (stereo not drawn) [Lactisole]
Effects on VGSCs (VGSC): Inhibition of VGSCs | Effect on VGSC enhanced by Aβ25-35 (Nav1.5; 1-1.5 mM): inhibits the enhancing effect of Aβ25-35 on VGSC; also recorded: recovered to the size of VGSC recorded in the control

OC[C@H]1O[C@@](CO)(O[C@H]2O[C@H](CO)[C@@H](O)[C@H](O)[C@H]2O)[C@@H](O)[C@@H]1O [Sucrose]
Effects on VGSCs (VGSC): Inhibition of VGSCs

Nc1nc2c(ncn2[C@@H]2O[C@H](COP(=O)(O)O)[C@@H](O)[C@H]2O)c(=O)[nH]1 [GMP, guanosine 5′-monophosphate]
Effects on VGSCs (VGSC): enhances VGSC; also recorded: Enhancement of VGSC | Effect on VGSC (VGSC; 1 mM): 1 mM GMP, much like L-Gln, primarily enhances VGSC without altering | Leftward shift in the I-V curve [1]: approximately 10 mV | Effect on VGSC current ([1]; 2 mM): slight increase in VGSC currents | Steady-state inactivation curve ([1]; 2 mM): No change; also recorded: No changes were observed | Effect on outward potassium current [3]: peak outward potassium current decreases; also recorded: reduced outward potassium currents

Brc1c(Br)c(Br)c2[nH]nnc2c1Br [TBB, 4,5,6,7-tetrabromobenzotriazole]
Shift of steady-state inactivation (S-S) curve of VGSC (VGSC): shifted to the hyperpolarizing direction even at control recordings. | Effect on VGSC current amplitude (Nav1.5): reduced the amplitude of VGSC current | Shift of steady-state inactivation (S-S) curve of VGSC (Nav1.5): shifted gradually to the left; also recorded: significantly shifts in the hyperpolarizing direction | Suppression of VGSC current (Nav1.5; 10 μM, prepulse −80 mV, test pulse −20 mV): almost completely suppressed | Suppression of VGSC current (Nav1.5; 10 μM, prepulse −100 mV): about half suppressed | VGSC current unaffected (Nav1.5; 10 μM, prepulse −120 mV): more than 80% | VGSC current inhibition (Nav1.5; minimum concentration (printed 30 μM), preceding pulse −80 mV): nearly complete VGSC current inhibition | Suppression of VGSC current (Nav1.5; prepulse −120 mV, at the used TBB concentration): about 50% | IC50 (Nav1.5; read-out: IC50 from difference in Vh of steady-state inactivation curve (Hill equation)): 12.9 µM | IC50 (Nav1.5; read-out: IC50 of inhibition of VGSC current (INa, step −100 mV to −20 mV, Hill plot), prepulse −100 mV): 15.8 µM

N[C@@H](CO)C(=O)O [L-Serin, L-serine]
Effects on VGSCs (VGSC): Enhancement of VGSC | Effect on VGSC current (VGSC; 2.5 mM): Enhances VGSC currentat 2.5 mM
